Reference: the NIST ThermoML archive (doi:10.1021/je101213p)
Values joined by “and” are separate entries in the source; they are usually repeats but may differ in a detail not shown here. Equal values may be shown once. ± gives the expanded uncertainty stated by the source.

What was measured:
[1] = DTA
[2] = Molar enthalpy of transition or fusion; settings: DSC
[3] = molar heat capacity at constant pressure; settings: 101.33 kPa, Liquid, Large sample (1 g) DSC

CCCCCC[n+]1ccn(C)c1.O=S(=O)([N-]S(=O)(=O)C(F)(F)F)C(F)(F)F
Settings | Molar enthalpy of transition or fusion [kJ/mol] | Normal melting temperature [°C] | molar heat capacity at constant pressure
[1], Crystal | – | -1.70 ± 0.61 | –
[2], Crystal | 27.7 ± 1.8 | – | –
[3], 302.86 K | – | – | 655.92 ± 22 J/K/mol
[3], 312.83 K | – | – | 632.65 ± 21 J/K/mol and 660.84 ± 22 J/K/mol
[3], 322.79 K | – | – | 666.66 ± 22 J/K/mol
[3], 322.81 K | – | – | 640.7 ± 21 J/K/mol
[3], 332.76 K | – | – | 668 ± 22 J/K/mol
[3], 332.78 K | – | – | 648.76 ± 21 J/K/mol
[3], 342.73 K | – | – | 671.58 ± 22 J/K/mol
[3], 342.76 K | – | – | 657.26 ± 22 J/K/mol
[3], 352.7 K | – | – | 676.95 ± 22 J/K/mol
[3], 352.72 K | – | – | 666.66 ± 22 J/K/mol
[3], 362.67 K | – | – | 683.66 ± 23 J/K/mol
[3], 362.68 K | – | – | 679.18 ± 22 J/K/mol
[3], 372.64 K | – | – | 690.82 ± 23 J/K/mol

CCCCCCCCn1cc[n+](C)c1.O=S(=O)([N-]S(=O)(=O)C(F)(F)F)C(F)(F)F
Settings | Molar enthalpy of transition or fusion [kJ/mol] | Normal melting temperature [°C] | molar heat capacity at constant pressure [J/K/mol]
[1], Metastable crystal | – | -23.34 ± 0.61 | –
[2], Metastable crystal | 27.4 ± 1.8 | – | –
[3], 281.99 K | – | – | 693.71 ± 23
[3], 291.95 K | – | – | 695.62 ± 23
[3], 302.86 K | – | – | 690.39 ± 23
[3], 302.88 K | – | – | 692.29 ± 23
[3], 312.83 K | – | – | 705.13 ± 23
[3], 312.86 K | – | – | 705.6 ± 23
[3], 322.79 K | – | – | 714.16 ± 24
[3], 322.84 K | – | – | 719.87 ± 24
[3], 332.76 K | – | – | 719.87 ± 24
[3], 332.81 K | – | – | 732.7 ± 24
[3], 342.72 K | – | – | 725.57 ± 24
[3], 342.78 K | – | – | 748.39 ± 25
[3], 352.68 K | – | – | 730.33 ± 24
[3], 352.74 K | – | – | 757.9 ± 25
[3], 362.65 K | – | – | 736.98 ± 24
[3], 362.71 K | – | – | 767.89 ± 26
[3], 372.62 K | – | – | 742.21 ± 25
[3], 372.66 K | – | – | 779.78 ± 26
